Assay results as given in patent US9499550B2 (BRISTOL-MYERS SQUIBB COMPANY, priority 2012, dated 2016).
Read-outs that look alike come from different tables or passages of the source.

Columns and labels:
[1] = tested on: HCV genotype 1a (H77 strain) replicon in HUH-7 cells; assay: HCV replicon luciferase reporter assay, genotype 1a; type: cell-based; conditions: Hepatitis C virus, Huh-7, 72 h, HCV genotype 1a replicon luciferase, 3 days incubation
Summary of the method: (§1)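 Replicon inhibition for both genotypes was measured as Renilla luciferase signal (EnduRen, 7.5 μM final, 2 h) after 3-day, 37° C exposure of replicon-bearing HUH-7 cells in 4% FCS DMEM, 0.5% DMSO. The 1b construct carries S1179I; the 1a H77 construct carries P1496L and S2204I. Twenty-point, 3-fold dilutions were fitted four-parametrically for EC50, and CC50 was taken from multiplexed Cell Titer-Blue.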

[2] = tested on: HCV genotype 1b (Con1) replicon in HUH-7 cells; assay: HCV replicon luciferase reporter assay, genotype 1b; type: cell-based; conditions: Hepatitis C virus, Huh-7, 72 h, HCV genotype 1b replicon luciferase, 3 days incubation
Summary of the method: as §1

Row | Structure (SMILES) | EC50 ([1]; read-out: LE_1a (EC50, range)) | EC50 ([2]; read-out: LE_1b (EC50, range)) | EC50 ([1]; read-out: LE_1a (EC50)) | EC50 ([2]; read-out: LE_1b (EC50))
1 | CCCOc1cnc(O[C@@H]2C[C@H]3C(=O)N[C@]4(C(=O)NS(=O)(=O)C5CC5)C[C@H]4/C=C\CC[C@@H](C)C[C@@H](C)[C@H](NC(=O)OC(C)(C)C)C(=O)N3C2)c2ccccc12 [Compound 5089, tert-butyl ((2R,6S,7R,9R,13aS,14aR,16aS,Z)-14a-((cyclopropylsulfonyl)carbamoyl)-7,9-dimethyl-5,16-dioxo-2-((4-propoxyisoquinolin-1-yl)oxy)-1,2,3,5,6,7,8,9,10,11,13a,14,14a,15,16,16a-hexadecahydrocyclopropa[e]pyrrolo[1,2-a][1,4]diazacyclopentadecin-6-yl)carbamate] | < 5.46 nM | < 5.46 nM |  | 
2 | CCCOc1cnc(O[C@@H]2C[C@H]3C(=O)N[C@]4(C(=O)NS(=O)(=O)C5CC5)C[C@H]4/C=C\CC[C@H](C)C[C@@H](C)[C@H](NC(=O)OC(C)(C)C(F)(F)F)C(=O)N3C2)c2ccccc12 [Compound 5090, 1,1,1-trifluoro-2-methylpropan-2-yl((2R,6S,7R,9S,13aS,14aR,16aS,Z)-14a-((cyclopropylsulfonyl)carbamoyl)-7,9-dimethyl-5,16-dioxo-2-((4-propoxyisoquinolin-1-yl)oxy)-1,2,3,5,6,7,8,9,10,11,13a,14,14a,15,16,16a-hexadecahydrocyclopropa[e]pyrrolo[1,2-a][1,4]diazacyclopentadecin-6-yl)carbamate] | > 87.4 nM | 4.82 to 103 nM | 522 nM | 87.4 nM
3 | CCCOc1cnc(O[C@@H]2C[C@H]3C(=O)N[C@]4(C(=O)NS(=O)(=O)C5CC5)C[C@H]4/C=C\CC[C@H](C)C[C@@H](C)[C@H](NC(=O)O[C@@H]4C[C@@H]5C[C@@H]5C4)C(=O)N3C2)c2ccccc12 [Compound 5092, (1R,3r,5S)-bicyclo[3.1.0]hexan-3-yl((2R,6S,7R,9S,13aS,14aR,16aS,Z)-14a-((cyclopropylsulfonyl)carbamoyl)-7,9-dimethyl-5,16-dioxo-2-((4-propoxyisoquinolin-1-yl)oxy)-1,2,3,5,6,7,8,9,10,11,13a,14,14a,15,16,16a-hexadecahydrocyclopropa[e]pyrrolo[1,2-a][1,4]diazacyclopentadecin-6-yl)carbamate] | > 87.4 nM | 4.82 to 103 nM |  | 
4 | CCCOc1cnc(O[C@@H]2C[C@H]3C(=O)N[C@]4(C(=O)NS(=O)(=O)C5CC5)C[C@H]4/C=C\CC[C@@H](C)C[C@@H](C)[C@H](NC(=O)O[C@@H]4C[C@@H]5C[C@@H]5C4)C(=O)N3C2)c2ccccc12 [Compound 5093, (1R,3r,5S)-bicyclo[3.1.0]hexan-3-yl((2R,6S,7R,9R,13aS,14aR,16aS,Z)-14a-((cyclopropylsulfonyl)carbamoyl)-7,9-dimethyl-5,16-dioxo-2-((4-propoxyisoquinolin-1-yl)oxy)-1,2,3,5,6,7,8,9,10,11,13a,14,14a,15,16,16a-hexadecahydrocyclopropa[e]pyrrolo[1,2-a][1,4]diazacyclopentadecin-6-yl)carbamate] | 4.82 to 103 nM | < 5.46 nM |  | 
5 | CCCOc1cnc(O[C@@H]2C[C@H]3C(=O)N[C@]4(C(=O)NS(=O)(=O)C5CC5)C[C@H]4/C=C\CC[C@H](C)C[C@@H](C)[C@H](NC(=O)O[C@H](C)C(F)(F)F)C(=O)N3C2)c2ccccc12 [Compound 5094, (R)-1,1,1-trifluoropropan-2-yl((2R,6S,7R,9S,13aS,14aR,16aS,Z)-14a-((cyclopropylsulfonyl)carbamoyl)-7,9-dimethyl-5,16-dioxo-2-((4-propoxyisoquinolin-1-yl)oxy)-1,2,3,5,6,7,8,9,10,11,13a,14,14a,15,16,16a-hexadecahydrocyclopropa[e]pyrrolo[1,2-a][1,4]diazacyclopentadecin-6-yl)carbamate] | > 87.4 nM | > 87.4 nM |  | 
6 | CCCOc1cnc(O[C@@H]2C[C@H]3C(=O)N[C@]4(C(=O)NS(=O)(=O)C5CC5)C[C@H]4/C=C\CC[C@@H](C)C[C@@H](C)[C@H](NC(=O)O[C@H](C)C(F)(F)F)C(=O)N3C2)c2ccccc12 [Compound 5095, (R)-1,1,1-trifluoropropan-2-yl((2R,6S,7R,9R,13aS,14aR,16aS,Z)-14a-((cyclopropylsulfonyl)carbamoyl)-7,9-dimethyl-5,16-dioxo-2-((4-propoxyisoquinolin-1-yl)oxy)-1,2,3,5,6,7,8,9,10,11,13a,14,14a,15,16,16a-hexadecahydrocyclopropa[e]pyrrolo[1,2-a][1,4]diazacyclopentadecin-6-yl)carbamate] | 4.82 to 103 nM | 4.82 to 103 nM |  | 
7 | CCCOc1cnc(O[C@@H]2C[C@H]3C(=O)N[C@]4(C(=O)NS(=O)(=O)C5CC5)C[C@H]4/C=C\CC[C@H](C)C[C@@H](C)[C@H](NC(=O)OCC4(C)CC4)C(=O)N3C2)c2ccccc12 [Compound 5096, (1-methylcyclopropyl)methyl ((2R,6S,7R,9S,13aS,14aR,16aS,Z)-14a-((cyclopropylsulfonyl)carbamoyl)-7,9-dimethyl-5,16-dioxo-2-((4-propoxyisoquinolin-1-yl)oxy)-1,2,3,5,6,7,8,9,10,11,13a,14,14a,15,16,16a-hexadecahydrocyclopropa[e]pyrrolo[1,2-a][1,4]diazacyclopentadecin-6-yl)carbamate] | > 87.4 nM | 4.82 to 103 nM |  | 
8 | CCCOc1cnc(O[C@@H]2C[C@H]3C(=O)N[C@]4(C(=O)NS(=O)(=O)C5CC5)C[C@H]4/C=C\CC[C@@H](C)C[C@@H](C)[C@H](NC(=O)OCC4(C)CC4)C(=O)N3C2)c2ccccc12 [Compound 5097, (1-methylcyclopropyl)methyl ((2R,6S,7R,9R,13aS,14aR,16aS,Z)-14a-((cyclopropylsulfonyl)carbamoyl)-7,9-dimethyl-5,16-dioxo-2-((4-propoxyisoquinolin-1-yl)oxy)-1,2,3,5,6,7,8,9,10,11,13a,14,14a,15,16,16a-hexadecahydrocyclopropa[e]pyrrolo[1,2-a][1,4]diazacyclopentadecin-6-yl)carbamate] | < 5.46 nM | < 5.46 nM |  | 
9 | CCCOc1cnc(O[C@@H]2C[C@H]3C(=O)N[C@]4(C(=O)NS(=O)(=O)C5CC5)C[C@H]4/C=C\CC[C@H](C)C[C@@H](C)[C@H](NC(=O)NC(C)(C)C(F)(F)F)C(=O)N3C2)c2ccccc12 [Compound 5098, (2R,6S,7R,9S,13aS,14aR,16aS,Z)—N-(cyclopropylsulfonyl)-7,9-dimethyl-5,16-dioxo-2-((4-propoxyisoquinolin-1-yl)oxy)-6-(3-(1,1,1-trifluoro-2-methylpropan-2-yl)ureido)-1,2,3,5,6,7,8,9,10,11,13a,14,14a,15,16,16a-hexadecahydrocyclopropa[e]pyrrolo[1,2-a][1,4]diazacyclopentadecine-14a-carboxamide] | > 87.4 nM | > 87.4 nM |  | 
10 | CCCOc1cnc(O[C@@H]2C[C@H]3C(=O)N[C@]4(C(=O)NS(=O)(=O)C5CC5)C[C@H]4/C=C\CC[C@@H](C)C[C@@H](C)[C@H](NC(=O)NC(C)(C)C(F)(F)F)C(=O)N3C2)c2ccccc12 [Compound 5099, (2R,6S,7R,9R,13aS,14aR,16aS,Z)—N-(cyclopropylsulfonyl)-7,9-dimethyl-5,16-dioxo-2-((4-propoxyisoquinolin-1-yl)oxy)-6-(3-(1,1,1-trifluoro-2-methylpropan-2-yl)ureido)-1,2,3,5,6,7,8,9,10,11,13a,14,14a,15,16,16a-hexadecahydrocyclopropa[e]pyrrolo[1,2-a][1,4]diazacyclopentadecine-14a-carboxamide] | < 5.46 nM | < 5.46 nM |  | 
11 | [2H]C([2H])([2H])Oc1cnc(O[C@@H]2C[C@H]3C(=O)N[C@]4(C(=O)NS(=O)(=O)C5(C)CC5)C[C@H]4/C=C\CC[C@H](C)C[C@@H](C)[C@H](NC(=O)OC(C)(C)C)C(=O)N3C2)c2ccccc12 [Compound 5100, tert-butyl ((2R,6S,7R,9S,13aS,14aR,16aS,Z)-7,9-dimethyl-14a-(((1-methylcyclopropyl)sulfonyl)carbamoyl)-5,16-dioxo-2-((4-(trideuteromethoxy)isoquinolin-1-yl)oxy)-1,2,3,5,6,7,8,9,10,11,13a,14,14a,15,16,16a-hexadecahydrocyclopropa[e]pyrrolo[1,2-a][1,4]diazacyclopentadecin-6-yl)carbamate] | < 5.46 nM | < 5.46 nM |  | 
12 | [2H]C([2H])([2H])Oc1cnc(O[C@@H]2C[C@H]3C(=O)N[C@]4(C(=O)NS(=O)(=O)C5(C)CC5)C[C@H]4/C=C\CC[C@H](C)C[C@@H](C)[C@H](NC(=O)OC(C)(C)C(F)(F)F)C(=O)N3C2)c2ccccc12 [Compound 5102, 1,1,1-trifluoro-2-methylpropan-2-yl((2R,6S,7R,9S,13aS,14aR,16aS,Z)-7,9-dimethyl-14a-(((1-methylcyclopropyl)sulfonyl)carbamoyl)-5,16-dioxo-2-((4-(trideuteromethoxy)isoquinolin-1-yl)oxy)-1,2,3,5,6,7,8,9,10,11,13a,14,14a,15,16,16a-hexadecahydrocyclopropa[e]pyrrolo[1,2-a][1,4]diazacyclopentadecin-6-yl)carbamate] | < 5.46 nM | < 5.46 nM |  | 
13 | [2H]C([2H])([2H])Oc1cnc(O[C@@H]2C[C@H]3C(=O)N[C@]4(C(=O)NS(=O)(=O)C5(C)CC5)C[C@H]4/C=C\CC[C@@H](C)C[C@@H](C)[C@H](NC(=O)OC(C)(C)C(F)(F)F)C(=O)N3C2)c2ccccc12 [Compound 5103, 1,1,1-trifluoro-2-methylpropan-2-yl((2R,6S,7R,9R,13aS,14aR,16aS,Z)-7,9-dimethyl-14a-(((1-methylcyclopropyl)sulfonyl)carbamoyl)-5,16-dioxo-2-((4-(trideuteromethoxy)isoquinolin-1-yl)oxy)-1,2,3,5,6,7,8,9,10,11,13a,14,14a,15,16,16a-hexadecahydrocyclopropa[e]pyrrolo[1,2-a][1,4]diazacyclopentadecin-6-yl)carbamate] | < 5.46 nM | < 5.46 nM |  | 
